What was measured:
LS174T indicator cells = type: cell-based; settings: human cells (LS174T), over the first 12 hours; Fig. 3A
[1] = type: in vitro ADME, bovine; settings: after 24 hours of serum pretreatment; Fig. 2D
[2] = type: in vitro ADME, bovine
[3] = system: hereditary inclusion body myopathy mouse model; settings: cited from earlier work
[4] = Fig. 2E; for surface expression of azido-modified sialic acids: after 24 hours of FBS pre-treatment; for loss of surface azido-sialic acid signal: first four hours of FBS treatment
[5] = cited from earlier work

Structure (SMILES) | increased sialic acid production compared among analogs (LS174T indicator cells) | surface expression of azido-modified sialic acids [4] | loss of surface azido-sialic acid signal [4] | further results
CCCC(=O)OC[C@H]1OC(O)[C@@H](NC(C)=O)[C@@H](OC(=O)CCC)[C@@H]1OC(=O)CCC (stereo partly shown) [3,4,6-O-Bu3ManNAc] | statistically identical levels | – | – | loss of analog-enhanced cell growth inhibition [1]: complete reversal
CC(=O)N[C@@H]1C(OC(C)=O)O[C@H](COC(C)=O)[C@@H](OC(C)=O)[C@@H]1OC(C)=O (stereo partly shown) [Ac4ManNAc, reference compound] | – | – | – | serum inactivation of analog, read as sialic acid production in indicator cells ([2]; FBS (100% serum) pre-incubation, Fig. 2A): refractory to serum inactivation; time of peak sialic acid production after administration [3]: peaked as soon as four hours after administration
CCCC(=O)OCC1OC(OC(=O)CCC)C(NC(C)=O)[C@@H](OC(=O)CCC)[C@@H]1OC(=O)CCC (stereo partly shown) [Bu4ManNAc] | statistically identical levels | – | – | reversion of analog-enhanced sialic acid production in indicator cells ([2]; lower concentrations of FBS (10% or 25%), Fig. 2B): did not result in a statistically significant reversion
CCCC(=O)OC[C@H]1OC(OC(=O)CCC)[C@@H](NC(=O)CN=[N+]=[N-])[C@@H](OC(=O)CCC)[C@@H]1OC(=O)CCC (stereo partly shown) [Bu4ManNAz] | – | reduction, but not complete reversal | refractory to a loss of signal | –
CCCC(=O)OC1O[C@H](CO)[C@@H](OC(=O)CCC)[C@H](OC(=O)CCC)[C@@H]1NC(C)=O (stereo partly shown) [1,3,4-O-Bu3ManNAc] | statistically identical levels | – | – | side effects such as cytotoxicity [5]: negligible; reduction in analog-enhanced sialic acid production ([2]; after four hours of serum treatment, Fig. 2C): only a relatively minor reduction
CC(=O)OC[C@H]1OC(OC(C)=O)[C@@H](NC(=O)CN=[N+]=[N-])[C@@H](OC(C)=O)[C@@H]1OC(C)=O (stereo partly shown) [Ac4ManNAz, reference compound] | – | reduction, but not complete reversal | refractory to a loss of signal | –
